In publication PMC12467033, “Exploring the Inhibitory Potential of Six Porphyrin Compounds Against α-Amylase and α-Glucosidase Linked to Diabetes” (Biomolecules, 2025):
Where “and” joins values, the source holds several entries; their conditions need not be identical. Equal values may be shown once. Read-outs that look alike come from different tables or passages of the source.

Legend:
α-glucosidase [1] = biological target: T1, α-glucosidase (Saccharomyces cerevisiae, UniProt P53341); format: biochemical
T1 sequence (P53341 whole entry): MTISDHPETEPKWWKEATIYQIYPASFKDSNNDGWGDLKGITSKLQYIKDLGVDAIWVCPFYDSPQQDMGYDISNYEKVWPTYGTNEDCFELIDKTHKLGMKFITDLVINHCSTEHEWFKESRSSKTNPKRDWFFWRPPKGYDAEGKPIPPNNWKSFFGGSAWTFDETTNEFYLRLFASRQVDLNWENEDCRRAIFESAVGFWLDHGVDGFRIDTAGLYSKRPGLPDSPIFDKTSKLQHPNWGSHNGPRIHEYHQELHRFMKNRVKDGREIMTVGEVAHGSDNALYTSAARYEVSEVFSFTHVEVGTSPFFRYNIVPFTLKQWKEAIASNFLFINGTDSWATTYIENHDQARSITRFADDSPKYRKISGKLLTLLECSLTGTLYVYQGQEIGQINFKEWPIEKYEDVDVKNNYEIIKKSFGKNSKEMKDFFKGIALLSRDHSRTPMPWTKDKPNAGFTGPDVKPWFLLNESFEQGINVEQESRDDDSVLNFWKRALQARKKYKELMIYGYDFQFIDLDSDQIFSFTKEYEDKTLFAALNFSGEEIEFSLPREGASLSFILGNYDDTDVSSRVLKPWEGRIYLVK
Text: In the experiment, the concentration of the fixed substrate Gal-G2-α-CNP/pNPG solution was 5 mmol/L, and the concentrations of the two enzymes (100, 200, 300, 400 U/L) were used to determine the effect of different concentrations of porphyrins on enzyme activity. The concentration of the enzyme was 200 U/L, and the concentration of the substrate Gal-G2-α-CNP/pNPG solution (2.5, 5, 7.5, 10 mmol/L) was used to determine the effect of different concentrations of porphyrins on the enzyme-catalyzed substrate activity.
Upon identifying the type of inhibition, the kinetic equations vary for different inhibition types.
In the formula, v, Vmax, Km, Ki, and Kis represent the reaction rate, maximum reaction rate, Michaelis constant, and free enzyme inhibition constant, respectively, and the binding enzyme inhibition constant. [S] denotes the substrate concentration. [I] denotes the inhibitor concentration.

α-amylase [2] = biological target: T2, α-amylase (Sus scrofa, UniProt P00690); assay: Fluorescence quenching, binding and thermodynamics with α-amylase
T2 sequence (P00690 16-511): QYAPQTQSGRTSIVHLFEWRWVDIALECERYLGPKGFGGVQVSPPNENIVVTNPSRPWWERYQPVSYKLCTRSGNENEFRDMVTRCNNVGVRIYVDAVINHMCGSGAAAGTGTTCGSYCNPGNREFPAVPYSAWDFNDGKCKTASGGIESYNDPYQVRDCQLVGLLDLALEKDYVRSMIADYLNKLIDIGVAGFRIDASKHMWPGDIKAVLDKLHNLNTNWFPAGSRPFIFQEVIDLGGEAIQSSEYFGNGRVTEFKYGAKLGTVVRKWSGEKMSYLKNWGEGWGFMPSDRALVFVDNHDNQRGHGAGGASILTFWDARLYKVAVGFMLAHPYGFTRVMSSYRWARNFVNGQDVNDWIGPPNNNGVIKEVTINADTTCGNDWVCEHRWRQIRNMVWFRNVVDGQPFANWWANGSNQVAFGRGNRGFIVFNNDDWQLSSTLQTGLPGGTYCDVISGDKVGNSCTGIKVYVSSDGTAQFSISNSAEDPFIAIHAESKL
Text: In the α-amylase experiment, a series of porphyrins and amylase (200 U/L) were mixed in a volume ratio of 1:1.
(§1) The Stern–Volmer equation [35] was adopted to determine the quenching mechanisms between six porphyrin compounds and both enzymes in the experimental group, with Formula (6):(6) F0/F=1+Ksv[Q]=1+Kqτ0[Q]
(§2) The Stern–Volmer equation was adapted based on experimental data to more accurately characterize the quenching behavior [36], with Formula (7):(7) F0/F=e^Ksv[Q]=e^Kqτ0[Q]
(§3) In the formula, the fluorescence quenching ratio was calculated as F0/F, where F0 corresponds to the emission intensity of pure α-amylase solution (control) and F denotes the intensity measured after the incremental addition of porphyrin ligands. KSV and Kq denote the Stern–Volmer quenching constant and the bimolecular quenching rate constant, respectively, τ0 (10^−8 s) is the average fluorescence lifetime of the fluorophore in the absence of quencher, and [Q] indicates the concentration of porphyrin compounds.
(§4) Due to the presence of an internal filtration effect, a decrease in the fluorescence intensity of the system may occur. Therefore, all fluorescence data were corrected using Formula (8) to eliminate the internal filtration effect.(8) Fcor=Fobse^(Aex+Aem)/2
(§5) The evaluation of the interaction forces between porphyrin compounds and the two enzymes can be achieved by calculating thermodynamic parameters. When both ΔH^0 and ΔS^0 are positive, the predominant interaction force is hydrophobic. When both ΔH^0 and ΔS^0 are negative, the main forces are hydrogen bonding and van der Waals forces. When ΔH^0 < 0 and ΔS^0 > 0, the primary interaction is electrostatic attraction.
(§6) The thermodynamic parameters were calculated using Formulas (9) and (10), and then the Van’t Hoff plot for the interactions between the porphyrin compounds and the two enzymes was generated by plotting lnKa on the Y-axis versus 1/T on the X-axis.(9) lnKa=−ΔH^0/RT+ΔS^0/R (10) ΔG^0=ΔH^0−TΔS^0=−RTlnKa

α-glucosidase [3] = biological target: T1, α-glucosidase; assay: Fluorescence quenching, binding and thermodynamics with α-glucosidase
Description: In the α-amylase experiment, a series of porphyrins and amylase (200 U/L) were mixed in a volume ratio of 1:1. In the α-glucosidase experiment, the glucosidase concentration was 400 U/L, mixed in a volume ratio of 1:1; the samples were maintained at three different temperatures (298, 304, and 310 K) for 30 min, with excitation at 280 nm and emission scanning from 300 to 500 nm.
as §1, §2, §3, §4, §5, §6

α-amylase [4] = biological target: T2, α-amylase; assay: FTIR secondary structure analysis of α-AMY complexes; details: enzyme–porphyrin molar ratio 1:2, amide I band
Text: (§7) A molar ratio of 1:2 (α-amylase/α-glucosidase)–porphyrin solution was placed in a cryocentrifugal concentrator and the dried solid sample was mixed with dry KBr and measured using a Nicolet IS-50 FTIR Spectrometer (ThermoFisher, Waltham, MA, USA) with a scanning range of 4000–400 cm^−1 and a resolution of 4 cm^−1. The overlapping peaks in the amide I band (1700–1600 cm^−1) were further analyzed into multiple feature sub-peaks, and quantitative analysis of the relative content of various secondary structures in proteins using curve fitting methods was performed.

α-glucosidase [5] = biological target: T1, α-glucosidase; assay: FTIR secondary structure analysis of α-GLU complexes; details: enzyme–porphyrin molar ratio 1:2, amide I band
Text: as §7

## iron (III) meso-tetra (4-carboxyphenyl) porphyrin chloride [Fe–TCPP]
α-glucosidase [1]
  Km: 2.6958 ± 0.0821 µg/mL and 3.3979 ± 0.1076 µg/mL and 3.9231 ± 0.1098 µg/mL and 4.1566 ± 0.0981 µg/mL and 4.3847 ± 0.0694 µg/mL
α-glucosidase [1]; C 16 μg/mL
  Vmax: 0.0771 ± 0.0023 ΔOD/min
α-glucosidase [1]; C 32 μg/mL
  Vmax: 0.0601 ± 0.0019 ΔOD/min
α-glucosidase [1]; C 48 μg/mL
  Vmax: 0.0502 ± 0.0014 ΔOD/min
α-glucosidase [1]; C 64 μg/mL
  Vmax: 0.0416 ± 0.0010 ΔOD/min
α-glucosidase [1]; C 80 μg/mL
  Vmax: 0.0361 ± 0.0006 ΔOD/min
α-glucosidase [1]; Lineweaver–Burk plots
  type of inhibition of α-glucosidase: mixed type
α-glucosidase [1]; enzyme 100–400 U/L, substrate 5 mmol/L
  reversibility of inhibition of α-glucosidase: reversible inhibition
α-glucosidase [1]; enzyme–substrate complex inhibition constant
  Kis: 40.4085 ± 0.1084 µg/mL
α-glucosidase [1]; free enzyme inhibition constant
  Ki: 9.8917 ± 0.0514 µg/mL
α-amylase [2]; Stern–Volmer plots, 298–310 K
  quenching mechanism of α-amylase fluorescence: mixed quenching
α-amylase [2]; T 298 K
  Ka (binding constant): 944.30 ± 0.18 ×10^5 L/mol
  Kq: 4.32 ± 0.06 ×10^12 L/mol/s
  Ksv: 4.32 ± 0.06 ×10^4 L/mol
  n (number of binding sites): 1.65
  ΔG^0: -10.87 ± 0.017 kcal/mol
α-amylase [2]; T 304 K
  Ka (binding constant): 40.38 ± 0.09 ×10^5 L/mol
  Kq: 3.36 ± 0.06 ×10^12 L/mol/s
  Ksv: 3.36 ± 0.06 ×10^4 L/mol
  n (number of binding sites): 1.38
  ΔG^0: -9.19 ± 0.014 kcal/mol
α-amylase [2]; T 310 K
  Ka (binding constant): 2.13 ± 0.05 ×10^5 L/mol
  Kq: 3.29 ± 0.08 ×10^12 L/mol/s
  Ksv: 3.29 ± 0.08 ×10^4 L/mol
  n (number of binding sites): 1.05
  ΔG^0: -7.557 ± 0.019 kcal/mol
α-amylase [2]; Van’t Hoff, 298–310 K
  ΔH^0: -93.248 ± 0.0406 kcal/mol
  ΔS^0: −1156.68 ± 0.13 J/mol/k
α-glucosidase [3]; 310 K
  binding constants K: (1.02 ± 0.02) × 10^5 L·mol^−1
α-glucosidase [3]; Stern–Volmer plots, 298–310 K
  quenching mechanism of α-glucosidase fluorescence: static quenching
α-glucosidase [3]; T 298 K
  Ka (binding constant): 1.65 ± 0.03 ×10^5 L/mol
  Kq: 14.52 ± 0.07 ×10^12 L/mol/s
  Ksv: 14.52 ± 0.07 ×10^4 L/mol
  n (number of binding sites): 1.01
  ΔG^0: -7.113 ± 0.012 kcal/mol
α-glucosidase [3]; T 304 K
  Ka (binding constant): 1.26 ± 0.03 ×10^5 L/mol
  Kq: 13.18 ± 0.05 ×10^12 L/mol/s
  Ksv: 13.18 ± 0.05 ×10^4 L/mol
  n (number of binding sites): 1.00
  ΔG^0: -7.094 ± 0.017 kcal/mol
α-glucosidase [3]; T 310 K
  Ka (binding constant): 1.02 ± 0.02 ×10^5 L/mol
  Kq: 12.20 ± 0.07 ×10^12 L/mol/s
  Ksv: 12.20 ± 0.07 ×10^4 L/mol
  n (number of binding sites): 0.98
  ΔG^0: -7.103 ± 0.014 kcal/mol
α-glucosidase [3]; Van’t Hoff, 298–310 K
  ΔH^0: -7.385 ± 0.014 kcal/mol
  ΔS^0: −3.88 ± 0.01 J/mol/k
α-amylase [4]
  Random Coil: 22.59 ± 0.03%
  α-Helix: 21.77 ± 0.07%
  β-Antiparallel: 8.76 ± 0.02%
  β-Sheet: 12.86 ± 0.04%
  β-Turn: 34.02 ± 0.08%
α-glucosidase [5]
  Random Coil: 16.75% and 16.75 ± 0.03%
  α-Helix: 22.48 ± 0.05%
  β-Antiparallel: 8.02% and 8.02 ± 0.02%
